The source of these data is US6288082A, “Substituted 3-cyanoquinolines” (priority 1999, dated 2001).

Structures are written as SMILES. “And” between values parts separate entries of the source, which are not always exact repeats. Equal entries are not always repeated. Structures can show the parent of a compound that is named as a salt. Where only a bound is given, the exact number is not on record here.

For the experiment, the target named is Mitogen Activated Protein Kinase (Mek-Erk). Put plainly: Mitogen Activated Protein Kinase (MAPK) assay, coupled Mek-Erk. In kind it is biochemical, human. The note with it: MBP or Myc peptide substrate, pH 7.4. The protocol:
Mitogen Activated Protein Kinase (MAPK) Assay
To evaluate inhibitors of the MAP (mitogen activated protein) kinase a two component coupled standard pharmacological test procedure, which measures phosphorylation of a serine/threonine residue in an appropriate sequence in the substrate in the presence and absence of a putative inhibitor, was used. Recombinant human MEK 1 (MAPKK) was first used to activate recombinant human ERK2 (MAPK) and the activated MAPK (ERK) was incubated with substrate (MBP peptide or MYC peptide) in the presence of ATP, Mg^+2 and radiolabeled ^33 P ATP. The phosphorylated peptide was captured on a P 81 phosphocellulose filter (paper filter or embedded in microtiter plate) washed and counted by scintillation methods.
The peptide substrates used in the assay are MBP, peptide substrate ([…]), or synthetic Myc substrate, ([…]·5 TFA. The recombinant enzymes used were prepared as GST fusion proteins of human ERK 2 and human MEK 1. Inhibitor samples were prepared as 10×stocks in 10% DMSO and an appropriate aliquot was used to deliver either 10 ug/ml for a single point screening dose or 100, 10, 1, and 0.1 uM final concentration for a dose response curve. Final DMSO concentrations were less than or equal to 1%.
The reaction was run as follows in 50 mM Tris kinase buffer, pH 7.4 in a reaction volume of 50 ul. The appropriate volume of kinase buffer and inhibitor sample was added to the tube. Appropriate dilution of enzyme was delivered to give 2-5 ug recombinant MAPK (Erk ) per tube. The inhibitor was incubated with MAPK (Erk) for 30 min at 0 deg. C. Recombinant Mek (MAPKK) (0.5-2.5 ug) or fully activated Mek (0.05-0.1 units) was added to activate the Erk and incubated for 30 min at 30° C. Then substrate and gamma ^33 P ATP was were added to give a final concentration of 0.5-1 mM MBPP or 250-500 uM Myc; 0.2-0.5 uCi gamma P 33 ATP/tube; 50 μM ATP final concentration. Samples were incubated at 30° C. for 30 minutes and the reaction was stopped by adding 25 μl of ice cold 10% TCA. After samples were chilled on ice for 30 min, 20 μl of sample was transferred onto P 81 phosphocellulose filter paper or appropriate MTP with embedded P 81 filter. Filter papers or MTP were washed 2 times with a large volume of 1% acetic acid, then 2 times with water. The filters or MTP were briefly air dried before addition of scintillant and samples were counted in the appropriate scintillation counter set up for reading ^33 P isotope. Samples included a positive control (activated enzyme plus substrate); a no enzyme control; a no substrate control; samples with different concentrations of putative inhibitor; and samples with reference inhibitors (other active compounds or non-specific inhibitors such as staurosporine or K252 B).
The raw data was captured as cpm. Sample replicates were averaged and corrected for background count. Mean cpm data was tabulated by group and % inhibition by a test compound was calculated as (corrected cpm control-corrected. cpm sample/control)×100=% inhibition. […] The results obtained for representative compounds of this invention are listed in TABLE 2 where there may be separate entries for the same compound; this is an indication that the compound was evaluated more than one time.

A word on the IC50: it is the concentration that gives 50% inhibition. In turn, `COc1cc2ncc(C#N)c(Nc3ccc4cn[nH]c4c3)c2cc1OC` [Example 102, 6,7-Dimethoxy-4-(1H-indazol-6-ylamino)-quinoline-3-carbonitrile] showed an IC50 of 0.5 µM.

In turn, `COc1ccc2ncc(C#N)c(Nc3ccc4cn[nH]c4c3)c2c1` [Example 141, 4-(1H-Indazol 6-ylamino)-6-methoxy-quinoline-3-carbonitrile] came in with an IC50 of 3 µM.

For the compound `CCOc1cc2ncc(C#N)c(Nc3ccc4ncsc4c3)c2cc1OCC` [Example 97, 4-(Benzothiazol-6-ylamino)-6,7-diethoxy-quinoline-3-carbonitrile HCl Salt], it took 55 µM to reach half-maximal inhibition (IC50).

`COc1ccc2ncc(C#N)c(Nc3ccc4nn[nH]c4c3)c2c1` [Example 142, 4-(3H-Benzotriazol-5-ylamino)-6-methoxy-quinoline-3-carbonitrile]: half-maximal inhibition (IC50) was put at 30 µM.

Compound `COc1ccc2c(Nc3ccc4[nH]nnc4c3)c(C#N)cnc2c1` [Example 144, 4-(3H-benzotriazol-5-ylamino)-7-methoxy-quinoline-3-carbinitile] showed an IC50 of more than 100 µM.

In turn, `COc1cc2ncc(C#N)c(Nc3ccc4sc(C)nc4c3)c2cc1OC` [Example 130, 6,7-Dimethoxy-4-(2-methyl-benzothiazol-5-ylamino)-quinoline-3-carbonitrile] yielded an IC50 of more than 100 µM.

In turn, `CCOc1cc2c(Nc3ccc4cn[nH]c4c3)c(C#N)cnc2cc1OC` [Example 126, 6-Ethoxy-4-(1H-indazol-6-ylamino)-7-methoxyquinoline-3-carbonitrile] displayed an IC50 of more than 100 µM.

Turning to `COc1cc2ncc(C#N)c(Nc3cccc4cnccc34)c2cc1OC` [Example 133, 4-(Isoquinolin-5-ylamino)-6,7-dimethoxy-quinoline-3-carbonitrile], the IC50 was 90 µM.

`COc1cc2ncc(C#N)c(Nc3ccc4[nH]nnc4c3)c2cc1OCCCN1CCOCC1` [Example 140, 4-(3H-Benzotriazol-5-ylamino)-7-methoxy-6-(3-morpholin-4-yl-proloxy)-quinoline-3-carbonitrile hydrochloride]: under “hydrochloride”, the IC50 is 22 µM and 15 µM.

The compound `COc1cc2ncc(C#N)c(Nc3cccc4c3CCCC4)c2cc1OC` [Example 155, 6,7-Dimethoxy-4-(5,6,7,8,-tetrahydro-naphthalen-1-ylamino)-quinoline-3-carbonitrile] had an IC50 of 4 µM.

In turn, `COc1cc2c(Nc3ccc4nn[nH]c4c3)c(C#N)cnc2c(OC)c1OC` [Example 156, 4-(3H-Benzotriazol-5-ylamino)-6,7,8-Trimethoxy-quinoline-3-carbonitrile] displayed an IC50 of 35 µM.

In turn, `COc1cc2ncc(C#N)c(Nc3ccc4ncccc4c3)c2cc1OC` [Example 153, 6,7-Dimethoxy-4-(quinoline-6-ylamino)-quinoline-3-carbonitrile] returned an IC50 of more than 100 µM.

The compound `CCOc1cc2ncc(C#N)c(Nc3ccc4c(c3)S(=O)(=O)C=C4)c2cc1OCC` [Example 112, 4-(1,1-Dioxo-1H-benzo[b]thiophen-6-ylamino)-6,7-diethoxy-quinoline-3-carbonitrile] registered an IC50 of more than 100 µM.

In the case of `CCOc1cc2ncc(C#N)c(Nc3ccc4c(c3)C(=O)NC4=O)c2cc1OCC` [Example 104, 4-(1,3-Dioxo-2,3-dihydro-1H-isoindol-5-ylamino)-6,7-diethoxy-quinoline-3-carbonitrile], the IC50 is 35 µM.

On to `COc1cc2ncc(C#N)c(Nc3ccc4c(C)cc(=O)[nH]c4c3)c2cc1OC` [Example 129, 6,7-Dimethoxy-4-(4-methyl-2-oxo-1,2-dihydro-quinolin-7-ylamino)-quinoline-3-carbonitrile], for which the IC50 was more than 100 µM.

In turn, `COc1cc2ncc(C#N)c(Nc3cccc4ncccc34)c2cc1OC` [Example 132, 6,7-Dimethoxy-4-(quinolin-5-ylamino)-quinoline-3-carbonitrile] registered an IC50 of 90 µM.

For the compound `COc1cc2c(Nc3ccc4cn[nH]c4c3)c(C#N)cnc2c(OC)c1OC` [Example 128, 4-(1H-Indazol-6-ylamino)-6,7,8-trimethoxy-quinoline-3-carbonitrile], the IC50 is > 100 µM and 100 µM.
